The values below come from US10450301B2, “Apoptosis signal-regulating kinase 1 inhibitors and methods of use thereof” (ENANTA PHARMACEUTICALS, INC., priority 2017, dated 2019).

This assay has as its target ASK1 (Homo sapiens (Human), UniProt Q99683). The assay can be described thus: HTRF KinEASE Assay (TR-FRET, STK3 peptide substrate), inhibition of ASK1. Format: biochemical. The conditions noted are these: 5 nM ASK1 kinase, 1 μM STK3 peptide substrate, 100 μM ATP, 3 hours; compound 0 to 10 μM. Summed up: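 TR-FRET HTRF KinEASE-STK format with an STK3 biotinylated peptide substrate. Signal tracks phosphorylation; IC50 from curve fitting.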
For orientation: In TR-FRET formats the signal depends on donor and acceptor labels being close together.

ASK1, sequence (Q99683 whole entry): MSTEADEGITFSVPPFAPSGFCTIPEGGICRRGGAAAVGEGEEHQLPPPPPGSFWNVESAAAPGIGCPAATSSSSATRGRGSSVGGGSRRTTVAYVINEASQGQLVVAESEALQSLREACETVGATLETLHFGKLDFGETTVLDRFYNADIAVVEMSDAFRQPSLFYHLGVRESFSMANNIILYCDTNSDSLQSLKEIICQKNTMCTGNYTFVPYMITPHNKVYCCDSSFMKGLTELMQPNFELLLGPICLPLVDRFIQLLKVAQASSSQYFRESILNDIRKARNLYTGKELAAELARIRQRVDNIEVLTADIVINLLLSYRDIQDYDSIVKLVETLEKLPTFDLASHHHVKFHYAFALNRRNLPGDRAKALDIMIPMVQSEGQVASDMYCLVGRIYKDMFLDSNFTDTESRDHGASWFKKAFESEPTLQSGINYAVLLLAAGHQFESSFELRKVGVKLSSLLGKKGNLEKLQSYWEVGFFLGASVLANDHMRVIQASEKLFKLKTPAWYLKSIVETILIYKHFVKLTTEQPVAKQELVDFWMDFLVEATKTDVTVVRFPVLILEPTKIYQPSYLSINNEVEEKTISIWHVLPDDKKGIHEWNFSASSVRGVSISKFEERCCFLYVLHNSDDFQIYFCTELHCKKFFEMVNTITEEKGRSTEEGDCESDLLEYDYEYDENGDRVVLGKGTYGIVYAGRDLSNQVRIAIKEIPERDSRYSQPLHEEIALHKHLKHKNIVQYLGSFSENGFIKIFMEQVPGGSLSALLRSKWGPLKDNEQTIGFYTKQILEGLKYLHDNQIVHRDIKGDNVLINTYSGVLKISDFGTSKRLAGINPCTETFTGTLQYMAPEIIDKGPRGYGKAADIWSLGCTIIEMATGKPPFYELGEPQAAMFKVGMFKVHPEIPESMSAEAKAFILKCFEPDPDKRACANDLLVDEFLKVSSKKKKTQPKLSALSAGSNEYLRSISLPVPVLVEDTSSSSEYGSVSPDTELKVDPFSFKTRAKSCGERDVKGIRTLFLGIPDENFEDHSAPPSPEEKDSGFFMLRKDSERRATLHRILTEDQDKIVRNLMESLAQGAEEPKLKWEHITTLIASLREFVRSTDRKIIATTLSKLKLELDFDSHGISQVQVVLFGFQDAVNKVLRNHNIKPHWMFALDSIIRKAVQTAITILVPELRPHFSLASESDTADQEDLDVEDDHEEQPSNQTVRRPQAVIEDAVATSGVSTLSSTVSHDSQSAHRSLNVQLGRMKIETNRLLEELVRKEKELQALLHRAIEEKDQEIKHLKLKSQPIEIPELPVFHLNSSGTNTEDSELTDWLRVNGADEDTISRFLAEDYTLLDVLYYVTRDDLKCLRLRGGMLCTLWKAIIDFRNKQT

Broadly, the IC50 is the concentration at which inhibition is half-maximal. Read a high IC50 as weaker potency in that assay. `CC(C)n1nnnc1-c1cccc(NC(=O)c2cc3c(cc2F)CCN(C(=O)N2CCCC2)C3)n1` [Example 93]: the IC50 lay in the range of 10 to 100 nM.
The figure for `CC(C)N1Cc2cnc(C(=O)Nc3cccc(-c4nncn4C(C)C)n3)cc2C1=O` [Example 19, 2-isopropyl-N-(6-(4-isopropyl-4H-1,2,4-triazol-3-yl)pyridin-2-yl)-1-oxo-2,3-dihydro-1H-pyrrolo[3,4-c]pyridine-6-carboxamide] is 10 to 100 nM.
For `CC(C)n1nnnc1-c1cccc(NC(=O)c2cc3c(cc2F)CCN(C(=O)N2CCS(=O)(=O)CC2)C3)n1` [Example 104] the value was 10 to 100 nM; for `C[C@H](CO)n1nnnc1-c1cccc(NC(=O)c2cc3c(cn2)CCN(C(=O)NC2CC2)C3)n1` [Example 131], 1 to 10 nM.
For `CCN(C)C(=O)N1CCc2cnc(C(=O)Nc3cccc(-c4nnnn4C(C)C)n3)cc2C1` [Example 115] the value was 1 to 10 nM; for `C[C@H](CO)n1nnnc1-c1cccc(NC(=O)c2cc3c(cn2)CCN(C(=O)OCC(F)(F)F)C3)n1` [Example 126], less than 1 nM.
Turning to `COCCS(=O)(=O)N1Cc2ccc(C(=O)Nc3cccc(-c4nnnn4C(C)C)n3)cc2C1` [Example 15], the half-maximal inhibitory concentration (IC50) is more than 1000 nM.
For `COCCOC(=O)N1CCc2cnc(C(=O)Nc3cccc(-c4nnnn4[C@H](C)CO)n3)cc2C1` [Example 158] the value was 1 to 10 nM; for `CC(C)n1nnnc1-c1cccc(NC(=O)c2cc3c(cc2F)CCN(C(=O)N(C)CC(F)(F)F)C3)n1` [Example 77], 10 to 100 nM; for `CCOC(=O)N1Cc2ccc(C(=O)Nc3cccc(-c4nncn4C(C)C)n3)cc2C1` [Example 7, ethyl 5-((6-(4-isopropyl-4H-1,2,4-triazol-3-yl)pyridin-2-yl)carbamoyl)isoindoline-2-carboxylate], 100 to 1000 nM.
For `CC(C)n1nnnc1-c1cccc(NC(=O)c2ccc3c(c2)CNC3)n1` [Example 8] the value was more than 1000 nM.
For `C[C@H](CO)n1nnnc1-c1cccc(NC(=O)c2cc3c(cn2)CCN(S(=O)(=O)N2CCCC2)C3)n1` [Example 154] the value was 1 to 10 nM; for `CCNC(=O)N1CCc2cnc(C(=O)Nc3cccc(-c4nnnn4[C@H](C)CO)n3)cc2C1` [Example 170], 1 to 10 nM; for `COCCS(=O)(=O)N1CCc2cc(F)c(C(=O)Nc3cccc(-c4nncn4C(C)C)n3)cc2C1` [Example 23], 1 to 10 nM.
For the compound `CCOC(=O)N1CCc2cc(F)c(C(=O)Nc3cccc(-c4nnnn4C(C)C)n3)cc2C1` [Example 30], the IC50 is 10 to 100 nM.
For `COc1cc2c(cc1C(=O)Nc1cccc(-c3nnnn3C(C)C)n1)C(=O)N(C(C)C)C2` [Example 174] the value was 100 to 1000 nM; for `COCCCN1CCc2ccc(C(=O)Nc3cccc(-c4nncn4C(C)C)n3)cc2C1` [Example 38, N-(6-(4-isopropyl-4H-1,2,4-triazol-3-yl)pyridin-2-yl)-2-(3-methoxypropyl)-1,2,3,4-tetrahydroisoquinoline-7-carboxamide], 100 to 1000 nM.
For `C=CCOC(=O)N1CCc2ccc(C(=O)Nc3cccc(-c4nncn4C(C)C)n3)cc2C1` [Example 59, allyl 7-((6-(4-isopropyl-4H-1,2,4-triazol-3-yl)pyridin-2-yl)carbamoyl)-3,4-dihydroisoquinoline-2(1H)-carboxylate] the value was 10 to 100 nM; for `COCCC(=O)N1CCc2cc(F)c(C(=O)Nc3cccc(-c4nnnn4C(C)C)n3)cc2C1` [Example 28], 10 to 100 nM; for `CC(C)N1Cc2cnc(C(=O)Nc3cccc(-c4nnnn4[C@H](C)CO)n3)cc2C1=O` [Example 18, (R)—N-(6-(1-(1-hydroxypropan-2-yl)-1H-tetrazol-5-yl)pyridin-2-yl)-2-isopropyl-1-oxo-2,3-dihydro-1H-pyrrolo[3,4-c]pyridine-6-carboxamide], 10 to 100 nM.
As for `CC1c2cc(C(=O)Nc3cccc(-c4nnnn4C(C)C)n3)c(F)cc2CCN1S(=O)(=O)CCC(F)(F)F` (stereo not drawn) [Example 70], the IC50 lay within 10 to 100 nM.
The figure for `C[C@H](CO)n1nnnc1-c1cccc(NC(=O)c2cc3c(cn2)CCN(C(=O)N2CCCC2)C3)n1` [Example 144, (R)—N-(6-(1-(1-hydroxypropan-2-yl)-1H-tetrazol-5-yl)pyridin-2-yl)-6-(pyrrolidine-1-carbonyl)-5,6,7,8-tetrahydro-2,6-naphthyridine-3-carboxamide] is 1 to 10 nM; for `CCC(=O)N1CCc2cnc(C(=O)Nc3cccc(-c4nnnn4[C@H](C)CO)n3)cc2C1` [Example 125] it is 1 to 10 nM; for `CC(C)c1nnnn1-c1cccc(NC(=O)c2cc3c(cc2F)CCN(S(=O)(=O)CCC(F)(F)F)C3)n1` [Example 100] it is more than 1000 nM.
